Patent publication US5407946A, “Pyrrolidine compounds which are useful as thromboxane AZ-inhibitors” (Adir et Compagnie, priority 1992, dated 1995)

Assays:
thromboxane receptors = biological target: T1, thromboxane receptors (Cavia porcellus, UniProt A0A286Y4I8); assay: IC50 on the tracheal pressure in guinea pigs (bronchoconstriction induced by U46619 in vivo); conditions: guinea pig, iv, 5 min; anesthetized guinea pigs, antagonist injected 5 minutes before U46619 (2 μg/kg i.v.), jugular vein; read-out: IC50, antagonist dose which inhibits by 50% the increase in tracheal pressure caused by U46619
T1 construct: U46619 causes a bronchoconstriction which results in an increase in tracheal pressure; from tissue; host or cells: whole anesthetized guinea pig (in vivo, airways)
T1 sequence (A0A286Y4I8 1-347): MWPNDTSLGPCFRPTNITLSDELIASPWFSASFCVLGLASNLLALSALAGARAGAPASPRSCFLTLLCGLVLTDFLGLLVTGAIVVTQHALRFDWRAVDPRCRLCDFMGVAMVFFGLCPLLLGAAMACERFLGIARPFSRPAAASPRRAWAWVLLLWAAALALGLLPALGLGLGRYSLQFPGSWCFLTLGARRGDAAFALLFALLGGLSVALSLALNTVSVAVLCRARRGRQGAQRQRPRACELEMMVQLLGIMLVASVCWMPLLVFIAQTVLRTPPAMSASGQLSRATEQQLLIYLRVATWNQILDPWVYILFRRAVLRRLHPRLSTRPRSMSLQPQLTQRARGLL
Text: Male albino guinea pigs (350-400 g), subjected to an 18-hour water diet, are anesthetized with ethylcarbamate (1.25 g/kg i.p.). A catheter is introduced into the carotid artery in order to measure the blood pressure by means of a pressure cell. A second catheter is introduced introduced into the jugular vein and is used for injecting the pharmacological substances. The trachea is cannulated and the guinea pig is placed under assisted respiration by means of a respirator. The temperature of the animal is kept at 37° C. by means of a thermostated cover. A needle pricked into the tracheal cannula is connected to a pressure cell and allows the tracheal pressure to be recorded. The guinea pigs are pretreated with d-tubocurarine (1 mg/kg i.v.) and with indomethacin (10 mg/kg i.v.). Injected at a dose of 2 μg/kg i.v., U46619 causes a bronchoconstriction which results in an increase in tracheal pressure and induces an increase in blood pressure. The responses to U46619 are reversible and reproducible if the injections are performed every 10 minutes.
The antagonists of thromboxane receptors are injected 5 minutes before the injections of U46619. The antagonist dose which inhibits by 50% the increase in tracheal pressure caused by U46619 is determined (IC50).

TXA2 receptors [1] = biological target: T2, TXA2 receptors (Oryctolagus cuniculus, UniProt Q6WQI8); assay: Platelet aggregation induced by U46619 in rabbit platelet-rich plasma (PRP); format: cell-based; conditions: 37° C., antagonist added 3 min before U46619 (1.2 μM), read-out: IC50, concentration which induces 50% inhibition of the aggregation response induced by U46619
T2 construct: citrated platelet-rich plasma, U46619-induced aggregation
T2 sequence (Q6WQI8 1-233): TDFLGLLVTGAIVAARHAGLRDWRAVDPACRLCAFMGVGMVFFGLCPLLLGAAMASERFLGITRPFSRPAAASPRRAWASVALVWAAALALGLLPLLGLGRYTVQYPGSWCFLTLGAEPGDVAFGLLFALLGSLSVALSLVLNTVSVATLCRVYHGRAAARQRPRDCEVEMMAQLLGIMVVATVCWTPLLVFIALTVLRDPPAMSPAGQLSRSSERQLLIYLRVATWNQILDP
Procedure: The rabbits (2-3 kg) are anesthetized with sodium pentobarbital (30 mg/kg i.v.). After cannulation of the left carotid artery, the blood is collected over sodium citrate (0.109 M) (1 vol. of citrate per 9 vol. of blood).
The plasma which is high in platelets (PRP) is obtained by centrifugation (20° C.) at 250 g for 20 minutes and the plasma which is low in platelets (PPP) by centrifugation at 1000 g (10 min). The number of platelets (PL) in the PRP is adjusted to between 300-350,000 pl/mm^3 by dilution with autologous PPP. The PRP is stored at room temperature up to the time of the test and is used within 4 hours following the collection. Platelet aggregation is performed at 37° C. in glass tubes siliconized by means of an aggregometer. The PRP and PLs are stirred at 1000 rpm (revolution per minute). In order to study the activity of the thromboxane antagonists, the PRP is incubated for 1 min at 37° C., and the antagonist is then added for a period of 3 min before adding the agonist U46619 (1.2 μM). The final volume of the cuvette is then 250 μl. The extent of platelet aggregation is determined by measuring the maximum amplitude of the aggregation plots and is expressed as a percentage of light transmission (% T). The activity of the antagonists is expressed as IC50, that is to say the concentration of the substance which induces 50% inhibition of the aggregation response induced by U46619.

TXA2 receptors [2] = biological target: T3, TXA2 receptors (Cavia porcellus, UniProt A0A286Y4I8); assay: Determination of the pA2 values on guinea pig trachea (contractions caused by U46619); format: cell-based; conditions: guinea pig tracheal rings, 37° C., agonist U46619 10^-9 M to 10^-5 M, antagonist contact 20 minutes; read-out: pA2 (negative logarithm of the concentration of antagonist in the presence of which twice the amount of agonist is required for the same effect) (converted)
T3 construct: the trachea is rapidly removed and then cut out into rings containing two cartilages; from tissue; host or cells: guinea pig trachea rings
T3 sequence (A0A286Y4I8 1-347): T1 sequence (A0A286Y4I8 1-347)
Procedure: 400-500-gram albino male guinea pigs were sacrificed by striking the nape of the neck and by pulling the neck. The throat is cut and the trachea is rapidly removed and then cut out into rings containing two cartilages. These rings are mounted between two hooks in cuvettes thermostated at 37° C., containing physiological saline (composition in mM: 118 NaCl; 25 NaHCO3; 10 glucose; 4.7 KCl; 1.25 CaCl2; 1.19 MgSO4; 1.14 KH2 PO4).
The physiological saline is bubbled with a mixture of 95% O2 -5% CO2. The bottom hook constitutes the fixed point while the upper hook is connected to an isometric force sensor. The tissues are placed under a basal tension of 3.5 grams. The pharmacological substances studied are prepared immediately before use. The drugs are solubilized in water or in dimethyl sulfoxide.
After mounting, the preparations are allowed to stand for 90 minutes, rinsings being carried out every 30 minutes. After readjusting the basal tension, a contraction generated by a single dose of agonist (U46619; 10^-5 M) is generated in order to stabilize subsequent contractions. After washing and returning to the base line, a first effect/concentration curve is produced by the addition of cumulative doses of U46619 (10^-9 M to 10^-5 M; the interval between the doses is a semilog). This first experiment makes it possible to calculate the effective concentration 50% (EC50) "control".
This EC50 is routinely calculated in the following manner: the tension values are first converted to percentages relative to the maximum effect, these percentages are then plotted on a graph with the percentages on the y-axis and the log(concentration) values on the x-axis. A linear regression is then performed on the points between 10% and 90% (which corresponds to the linear portion of the sigmoid curve). The concentration corresponding to half maximum effect (50%) can be easily calculated by means of the parameters of the straight line.
After washing and returning to the base line, the organ is placed in contact with the antagonist ([…]) for 20 minutes. A second effect/concentration curve is then produced in the presence of the antagonist and the "treated" EC50 can then be calculated. All the elements required for calculating the pA2 (competitive antagonism) or the pD2 (noncompetitive antagonism) are thus available.
The pA2 (which represents the negative logarithm of the concentration of antagonist in the presence of which twice the amount of agonist is required in order to obtain the same effect) is determined by plotting on a graph the log((L/l)-1) values relative to the log(concentration of antagonist), with L=effect in the presence of antagonist and 1=control effect. In this test, the pA2 values for the compounds of Examples 14 and 18 are as follows: […]

| Structure (SMILES) | ED50 (thromboxane receptors) | Kb (TXA2 receptors [2]) | IC50 (TXA2 receptors [1]) |
| --- | --- | --- | --- |
| O=C(O)CCC/C=C\C[C@@H]1CN(S(=O)(=O)c2cccc3cnccc23)C[C@@H]1c1ccccc1O (relative stereo) [Example 30, (5Z-7-[(3α,4α)-1-[(Isoquinolyl-5-yl)sulfonyl]-4-(2-hydroxyphenyl)pyrrolidin-3-yl)]hept-5-enoic acid] | 0.08 mg/kg |  | 500 nM |
| CC(C)C(=O)N1C[C@@H](C/C=C\CCC(=O)O)[C@H](c2ccccc2O)C1 (relative stereo) [Example 20, (4Z)-6-[(3α,4β)-1-Isobutyroyl-4-(2-hydroxyphenyl)pyrrolidin-3-yl]hex-4-enoic acid] | 1.31 mg/kg |  |  |
| CCCCCCC(=O)N1C[C@@H](C/C=C\CCC(=O)O)[C@@H](c2ccccc2O)C1 (relative stereo) [Example 23, (4Z)-6-[(3α,4α)-1-Heptanoyl-4-(2-hydroxyphenyl)pyrrolidin-3-yl]hex-4-enoic acid] | 0.43 mg/kg | 20 nM |  |
| O=C(O)CC/C=C\C[C@@H]1CN(S(=O)(=O)c2cccc3cnccc23)C[C@@H]1c1ccccc1O (relative stereo) [Example 24, (4Z)-6-[(3α,4α)-1-[(Isoquinol-5-yl)sulfonyl]-4-(2-hydroxyphenyl)pyrrolidin-3-yl]hex-4-enoic acid] | 0.01 mg/kg | 0.316 nM | 800 nM |
| CC(C)C(=O)N1C[C@@H](C/C=C\CCC(=O)O)[C@@H](c2ccccc2O)C1 (relative stereo) [Example 19] | 0.1 mg/kg | 200 nM |  |
| O=C(O)CC/C=C\C[C@@H]1CN(C(=O)Nc2ccccc2)C[C@@H]1c1ccccc1O (relative stereo) [Example 22, (4Z)-6-[(3α,4α)-1-Phenylaminocarbonyl-4-(2-hydroxyphenyl)pyrrolidin-3-yl]hex-4-enoic acid] | 1.21 mg/kg |  | 4000 nM |
| O=C(O)CC/C=C\C[C@@H]1CN(S(=O)(=O)c2cccc3ccccc23)C[C@@H]1c1ccccc1O (relative stereo) [Example 28] | 0.01 mg/kg | 1.58 nM | 500 nM |
| O=C(O)CC/C=C\C[C@@H]1CN(S(=O)(=O)c2cccc3cnccc23)C[C@H]1c1ccccc1O (relative stereo) [Example 25, (4Z)-6-[(3α,4β)-1-[(Isoquinol-5-yl)sulfonyl]-4-(2-hydroxyphenyl)pyrrolidin-3-yl]hex-4-enoic acid] | 0.06 mg/kg |  | 5000 nM |
| O=C(O)CC/C=C\C[C@@H]1CN(S(=O)(=O)c2ccc(Cl)cc2)C[C@H]1c1ccccc1O (relative stereo) [Example 18, (4Z)-6-[(3α, 4β)-1-(4-Chlorophenylsulfonyl)-4-(2-hydroxyphenyl)pyrrolidin-3-yl]hex-4-enoic acid] | 0.03 mg/kg | 7.94 nM | 5400 nM |

Continued, in another order:

| ED50 (thromboxane receptors) | Kb (TXA2 receptors [2]) | Structure (SMILES) | IC50 (TXA2 receptors [1]) |
| --- | --- | --- | --- |
| 0.177 mg/kg |  | O=C(O)CC/C=C\C[C@@H]1CN(Cc2ccccc2)C[C@@H]1c1ccccc1O (relative stereo) [Example 15, (4Z) -6[(3α,4α) -1-Benzyl-4-(2-hydroxyphenyl)pyrrolidin-3-yl]hex-4-enoic acid] |  |
| 1.02 mg/kg | 282 nM | O=C(O)CCC/C=C\C[C@@H]1CN(Cc2ccccc2)C[C@@H]1c1ccccc1O (relative stereo) [Example 14, (5Z)-7-[(3α,4α)-1-Benzyl-4-(2-hydroxyphenyl)pyrrolidin-3-yl]hept-5-enoic acid] |  |
| 2.28 mg/kg |  | O=C(O)CCC/C=C\[C@@H]1CN(Cc2ccccc2)C[C@@H]1c1ccccc1O (relative stereo) [Example 13, (5Z) -6-[(3α,4α) -1-Benzyl-4-(2-hydroxyphenyl)pyrrolidin-3-yl]hex-5-enoic acid] |  |
| 0.03 mg/kg |  | O=C(O)CC/C=C\C[C@@H]1CN(S(=O)(=O)c2cccc3cccnc23)C[C@@H]1c1ccccc1O (relative stereo) [Example 27, (4Z)-6-[(3α,4α)-1-[(Quinol-8-yl)sulfonyl]-4-(2-hydroxyphenyl)pyrrolidin-3-yl]hex-4-enoic acid] |  |
| 1.03 mg/kg | 1580 nM | O=C(O)CC/C=C\C[C@H]1CN(Cc2cccnc2)C[C@H]1c1ccccc1O (relative stereo) [Example 21, (4Z)-6-[(3α, 4α)-4-(2-hydroxyphenyl)-1-[(3-pyridyl)methyl]pyrrolidin-3-yl]hex-4-enoic acid] |  |
| 0.11 mg/kg |  | O=C(O)CC/C=C\C[C@@H]1CN(S(=O)(=O)c2ccc3ccccc3c2)C[C@@H]1c1ccccc1O (relative stereo) [Example 29] |  |
